Measured values reported in ChEMBL document CHEMBL1150279, “Non-peptide gonadotropin-releasing hormone receptor antagonists” (J Med Chem, 2008).
One block for each compound: values may come before it.

How the values were obtained:
[1] = target: T1, Gonadotropin-releasing hormone receptor (Homo sapiens, UniProt P30968); assay: Binding affinity at human GnRH receptor by competition binding assay
T1 sequence (P30968 whole entry): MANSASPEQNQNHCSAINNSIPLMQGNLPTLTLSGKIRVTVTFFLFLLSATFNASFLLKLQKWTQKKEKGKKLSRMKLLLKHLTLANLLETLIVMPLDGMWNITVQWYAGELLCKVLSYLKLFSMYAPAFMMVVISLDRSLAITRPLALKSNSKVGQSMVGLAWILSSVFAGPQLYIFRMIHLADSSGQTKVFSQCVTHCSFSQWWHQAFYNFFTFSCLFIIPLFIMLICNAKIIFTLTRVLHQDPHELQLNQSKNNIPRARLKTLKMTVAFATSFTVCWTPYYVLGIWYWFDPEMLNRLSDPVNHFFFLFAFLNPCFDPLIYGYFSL

[2] = Oral bioavailability in rat; format: ADME, organism-based; conditions: in vivo
[3] = target: T2, Gonadotropin-releasing hormone receptor (Rattus norvegicus, UniProt P30969); assay: Binding affinity at rat GnRH receptor by competition binding assay
T2 sequence (P30969 whole entry): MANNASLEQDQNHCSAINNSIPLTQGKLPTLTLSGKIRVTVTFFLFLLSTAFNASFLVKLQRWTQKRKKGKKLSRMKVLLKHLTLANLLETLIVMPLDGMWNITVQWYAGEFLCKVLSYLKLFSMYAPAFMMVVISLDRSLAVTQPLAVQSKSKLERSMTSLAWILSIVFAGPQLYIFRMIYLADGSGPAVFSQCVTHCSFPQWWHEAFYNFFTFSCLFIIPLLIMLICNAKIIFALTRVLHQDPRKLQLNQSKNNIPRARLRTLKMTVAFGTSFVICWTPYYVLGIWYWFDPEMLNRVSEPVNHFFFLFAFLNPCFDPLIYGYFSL

[4] = target: T1, Gonadotropin-releasing hormone receptor; assay: Binding affinity at human GnRH receptor by calcium mobilization assay; format: functional
[5] = target: T1, Gonadotropin-releasing hormone receptor; assay: (§1) Binding affinity at human GnRH receptor
[6] = target: 5-hydroxytryptamine receptor 2B (Homo sapiens) (UniProt P41595); assay: Binding affinity to 5HT2B receptor
5-hydroxytryptamine receptor 2B (Homo sapiens), sequence (P41595 whole entry): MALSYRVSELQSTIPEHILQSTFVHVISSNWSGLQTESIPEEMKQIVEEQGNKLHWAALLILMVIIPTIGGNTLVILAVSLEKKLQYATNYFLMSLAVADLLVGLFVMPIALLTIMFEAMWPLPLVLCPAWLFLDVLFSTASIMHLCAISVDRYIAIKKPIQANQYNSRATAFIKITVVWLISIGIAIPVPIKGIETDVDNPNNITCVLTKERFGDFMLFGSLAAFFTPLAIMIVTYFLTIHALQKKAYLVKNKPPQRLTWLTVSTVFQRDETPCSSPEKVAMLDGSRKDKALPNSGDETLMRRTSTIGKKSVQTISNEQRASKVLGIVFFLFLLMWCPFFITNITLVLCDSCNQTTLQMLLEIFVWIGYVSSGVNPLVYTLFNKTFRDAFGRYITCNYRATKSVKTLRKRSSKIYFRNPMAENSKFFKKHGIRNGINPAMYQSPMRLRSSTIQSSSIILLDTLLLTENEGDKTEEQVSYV

[7] = Binding affinity to alpha1 adrenergic receptor
[8] = target: T2, Gonadotropin-releasing hormone receptor; assay: Binding affinity at rat GnRH receptor by whole cell binding assay
Rhesus monkey = assay: Suppression of circulating luteinizing hormone in monkey; format: functional, Macaca mulatta
[9] = Tmax in postmenopausal women at 5 to 200 mg, po; format: ADME, organism-based; conditions: female, human, in vivo
[10] = Half life in postmenopausal women at 5 to 200 mg, po; format: ADME, organism-based; conditions: female, human, in vivo
[11] = target: T3, Gonadotropin-releasing hormone receptor (Homo sapiens) (UniProt P30968); assay: as §1
T3 sequence (whole entry): T1 sequence (P30968 whole entry)

[12] = target: T4, Gonadotropin-releasing hormone receptor (Macaca mulatta, UniProt Q8SPZ1); assay: Binding affinity at monkey GnRH receptor
T4 sequence (Q8SPZ1 whole entry): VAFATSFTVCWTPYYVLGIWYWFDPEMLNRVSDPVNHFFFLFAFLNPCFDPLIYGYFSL

[13] = target: T4, Gonadotropin-releasing hormone receptor; assay: Activity at rhesus monkey GnRH receptor by inositol phosphate functional assay
[14] = target: T2, Gonadotropin-releasing hormone receptor; assay: Antagonist activity at rat GnRH receptor assessed as luteinizing hormone release in rat pituitary cells; format: functional, cell-based, Pituitary gland cell; conditions: read-out: pA2 (converted)
Rattus norvegicus = assay: Suppression of circulating luteinizing hormone in rat at 110 mg/kg, po relative to control; format: functional
[15] = Binding affinity at cynomolgus monkey GnRH receptor expressed in CHO cells; format: cell-based, Macaca fascicularis
[16] = Activity at cynomolgus monkey GnRH receptor expressed in CHO cells assessed as inhibition of arachidonic acid release; format: cell-based; conditions: Macaca fascicularis
[17] = Inhibition of circulating luteinizing hormone in cynomolgus monkey pituitary cells; format: functional, Macaca fascicularis, Pituitary gland cell
Cynomolgus monkey [18] = assay: Suppression of circulating luteinizing hormone in cynomolgus monkey at 10 mg/kg, po relative to baseline; format: functional, Macaca fascicularis
Cynomolgus monkey [19] = assay: Suppression of circulating luteinizing hormone in cynomolgus monkey at 30 mg/kg, po relative to baseline; format: functional, Macaca fascicularis
[20] = AUC (0 to 6 hrs) in cynomolgus monkey at 10 mg/kg, po; format: ADME, organism-based, Macaca fascicularis; design: time < 6 hr, dose 10 mg/kg, route oral; conditions: plasma
[21] = Cmax in healthy male human at 10 mg; format: ADME, organism-based; design: dose 10 mg; conditions: in vivo
[22] = AUC (0 to 8 hrs) in healthy male human at 10 mg; format: ADME, organism-based; design: dose 10 mg, time < 8 hr; conditions: plasma
[23] = Cmax in healthy male human at 200 mg; format: ADME, organism-based; design: dose 200 mg; conditions: in vivo
[24] = AUC (0 to 8 hrs) in healthy male human at 200 mg; format: ADME, organism-based; design: dose 200 mg, time < 8 hr; conditions: plasma
[25] = target: T2, Gonadotropin-releasing hormone receptor; assay: Binding affinity at rat GnRH receptor
[26] = Oral bioavailability in monkey; format: ADME, organism-based, Macaca mulatta; conditions: rhesus monkey, in vivo
Plasma = assay: Protein binding in rat plasma; format: ADME, cell-free

IC50 [1]: 0.0016 µM
bioavailability [2]: 72%
IC50 [3]: 0.018 µM
SMILES: CCn1cc(CN2CCN(c3cccc4[nH]c(-c5ccc(C(C)(C)C)cc5)nc34)CC2)c(=O)[nH]c1=O

IC50 [4]: 3.4 µM
SMILES: CCSc1nc2cc(S(=O)(=O)NCc3ccccc3OC)ccc2n1Cc1ccccc1

Ki [5]: 0.23 µM
SMILES: N[C@@H](Cn1c(=O)c(-c2ccccc2F)c2n(c1=O)C(c1ccccc1F)CO2)c1ccccc1 (stereo partly drawn)

Activity [6]: 165 nM
Activity [7]: 114 nM
IC50 [8]: 0.0017 µM
SMILES: Cc1cc(C)cc(-c2[nH]c3ccc(C(C)(C)C(=O)N4CC5CCC4CC5)cc3c2[C@H](C)CNCCc2ccncc2)c1

IC50 [1]: 0.0052 µM
SMILES: CC(C)(C)c1ccc(-c2nc3c(N4CCN(Cc5ccnc(S(C)(=O)=O)n5)CC4)cccc3[nH]2)cc1

Tmax [9]: 0.4 h
half-life [10]: 2.7 h
SMILES: COc1cccc(-c2c(C)n(Cc3c(F)cccc3F)c(=O)n(C[C@H](N)c3ccccc3)c2=O)c1F
Activity (Rhesus monkey): 32%

Activity [11]: 0.4 nM
Ki [12]: 0.0005 µM
IC50 [13]: 0.007 µM
SMILES: Cc1cc(-c2c(OCC[C@@H]3CCN3)c3cc(C(=O)Nc4ccncn4)c(Cl)cc3[nH]c2=O)cc(C)c1C

Ki [5]: 0.0005 µM
SMILES: COc1cccc(-c2c(C)n(Cc3c(F)cccc3C(F)(F)F)c(=O)n(C[C@H](N)c3ccccc3)c2=O)c1F

IC50 [4]: 41 µM
SMILES: CCCn1c(SCc2cc([N+](=O)[O-])ccc2OC)nc2cc(NC(=O)NC(C)(C)C)cc(C(=O)NC)c21

IC50 [1]: 0.0066 µM
SMILES: CCc1nc(C)c(CN2CCN(c3cccc4[nH]c(-c5ccc(C(C)(C)C)cc5)nc34)CC2)[nH]1

Kb [14]: 0.00158 µM
SMILES: CC[C@H]1OC(=O)[C@H](C)[C@@H](OC(=O)N2C(=O)OC[C@@H]2C)[C@H](C)[C@@H](O[C@@H]2O[C@H](C)C[C@H](N(C)CC3CC3)[C@H]2O)[C@@](C)(OC)C[C@@H](C)C(=O)[C@H](C)[C@H]2N(CCc3ccc(Cl)c(Cl)c3)C(=O)O[C@]12C
Activity (Rattus norvegicus): 20%

Ki [5]: 0.019 µM
SMILES: Cc1c(-c2ccccc2F)c(=O)n(C[C@H](N)c2ccccc2)c(=O)n1Cc1ccccc1F

IC50 [4]: < 0.01 µM
SMILES: CC(C)(C)NC(=O)NCCc1nc2cc(S(=O)(=O)NCc3ccc(Cl)cc3)ccc2n1Cc1ccccc1

IC50 [15]: 0.0006 µM
IC50 [16]: 0.01 µM
AUC(0-t) at 6 h [20]: 850 nM·h
Cmax [21]: 0.015 µg/mL
AUC(0-t) at 8 h [22]: 0.173 µg·h/mL
Cmax [23]: 0.274 µg/mL
AUC(0-t) at 8 h [24]: 2.56 µg·h/mL
SMILES: CONC(=O)Nc1ccc(-c2sc3c(c2CN(C)Cc2ccccc2)c(=O)n(-c2ccccc2)c(=O)n3Cc2c(F)cccc2F)cc1 [SUFUGOLIX]
Activity [17]: 36 nM
Activity (Cynomolgus monkey [18]): 18%
Activity (Cynomolgus monkey [19]): 11%

Ki [5]: 0.0045 µM
SMILES: COc1cccc(-c2c3n(c(=O)n(C[C@H](N)c4ccccc4)c2=O)C(c2ccccc2F)CS3)c1Cl (stereo partly drawn)

Ki [5]: 0.11 µM
SMILES: N[C@@H](Cn1c(=O)c(-c2ccccc2F)c2n(c1=O)[C@@H](c1ccccc1)CS2)c1ccccc1

Ki [5]: 0.0002 µM
SMILES: COc1cccc(-c2c(C)n(Cc3c(F)cccc3S(C)(=O)=O)c(=O)n(C[C@H](N)c3ccccc3)c2=O)c1F

Ki [5]: 0.23 µM
SMILES: N[C@@H](Cn1c(=O)c(-c2ccccc2F)c2n(c1=O)C(c1ccccc1)CS2)c1ccccc1 (stereo partly drawn)

Ki [5]: 0.11 µM
SMILES: COc1cccc(-n2c(=O)c(Cc3c(F)cccc3F)nn(C[C@H](N)c3ccccc3)c2=O)c1

Ki [5]: 0.0044 µM
SMILES: COc1cccc(-c2c(C)n(Cc3c(F)cccc3[S+](C)[O-])c(=O)n(C[C@H](N)c3ccccc3)c2=O)c1F (stereo partly drawn)

Ki [5]: 0.04 µM
SMILES: COc1cccc(-c2c3n(c(=O)n(C[C@H](N)c4ccccc4)c2=O)C(c2ccccc2F)CS3)c1F (stereo partly drawn)

IC50 [25]: 0.0002 µM
SMILES: Cc1cc(C)cc(-c2[nH]c3c(c2[C@H](C)CNCCc2ccc(-c4nnn[nH]4)cc2)CN(C(=O)Cc2c(F)cccc2C(F)(F)F)CC3)c1

Ki [5]: 0.014 µM
SMILES: C=C1C(Cl)=CC=C1c1c(C)n(Cc2c(F)cccc2F)c(=O)n(C[C@H](N)c2ccccc2)c1=O

bioavailability [26]: 22%
SMILES: CN[C@@H](Cc1ccccc1)Cn1c(=O)c(-c2cccc(OC)c2F)c(C)n(Cc2c(F)cccc2F)c1=O

Ki [5]: 0.0023 µM
SMILES: COc1cccc(-c2nn(Cc3c(F)cccc3C(F)(F)F)c(=O)n(C[C@H](N)c3ccccc3)c2=O)c1Cl

Ki [5]: 0.013 µM
SMILES: COc1cccc(-c2nn(Cc3c(F)cccc3C(F)(F)F)c(=O)n(C[C@H](N)c3ccccc3)c2=O)c1F

Ki [5]: 0.47 µM
SMILES: COc1cccc(-c2c(C)n(Cc3c(F)cccc3F)c(=O)n(C[C@H](C)N(C)CCc3ccccn3)c2=O)c1

Ki [3]: 0.0038 µM
Activity (Plasma): 99.9%
SMILES: COc1cc(OC)c(NC(=O)c2ccc(Cc3cc4c(cc3C)C(C)(C)CCC4(C)C)o2)c(OC)c1

Ki [5]: 0.22 µM
SMILES: N[C@@H](Cn1c(=O)c(-c2ccccc2F)c2n(c1=O)C(c1ccccc1F)CS2)c1ccccc1 (stereo partly drawn)

Ki [5]: 0.023 µM
SMILES: COc1cccc(-c2c(C)n(Cc3c(F)cccc3F)c(=O)n(CC(C)(N)c3ccccc3)c2=O)c1F (stereo not drawn)

Ki [5]: 0.015 µM
SMILES: CSc1ccc(CN2CCc3c(c(=O)n(CCN(C)CCc4ccccn4)c(=O)n3Cc3c(F)cccc3F)C2)cc1

IC50 [1]: 0.8 µM
SMILES: FC(F)(F)c1nc2c(N3CCN(CCOc4cccc5[nH]c(=S)[nH]c45)CC3)cccc2[nH]1

Ki [5]: 0.58 µM
SMILES: N[C@@H](Cn1c(=O)c(Cc2c(F)cccc2F)nn(-c2ccccc2F)c1=O)c1ccccc1

IC50 [4]: 10 µM
SMILES: CCSc1nc2cc(NC(=O)C3CC3)ccc2n1C(C)C
